One assay deals with T1, human recombinant HDAC1 (Homo sapiens, UniProt Q13547).
T1 construct: purchased Enzo Life Science BML-SE456
The assay is described as follows: HDAC1 enzyme activity inhibition assay (in vitro, fluorimetric). Conditions: human recombinant HDAC1, fluorimetric kit, 30° C. 60 minutes. It counts as biochemical. The procedure, abridged:
(§1)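 IC50 values derive from fluorescence (Ex 360, Em 460) after developer treatment (30 min) of reactions of recombinant human HDAC1 or HDAC6 with 10 μM Fluor de Lys-SIRT1 substrate (60 min, 30 °C). Compounds were serially diluted 5-fold; 0.3 μg enzyme was used for HDAC1, with HDAC6 tested identically.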

A further assay concerns the target T2, human recombinant HDAC6 (Homo sapiens, UniProt Q9UBN7).
T2 construct: purchased Calbiochem 382180
T2 sequence (Q9UBN7 1-1215): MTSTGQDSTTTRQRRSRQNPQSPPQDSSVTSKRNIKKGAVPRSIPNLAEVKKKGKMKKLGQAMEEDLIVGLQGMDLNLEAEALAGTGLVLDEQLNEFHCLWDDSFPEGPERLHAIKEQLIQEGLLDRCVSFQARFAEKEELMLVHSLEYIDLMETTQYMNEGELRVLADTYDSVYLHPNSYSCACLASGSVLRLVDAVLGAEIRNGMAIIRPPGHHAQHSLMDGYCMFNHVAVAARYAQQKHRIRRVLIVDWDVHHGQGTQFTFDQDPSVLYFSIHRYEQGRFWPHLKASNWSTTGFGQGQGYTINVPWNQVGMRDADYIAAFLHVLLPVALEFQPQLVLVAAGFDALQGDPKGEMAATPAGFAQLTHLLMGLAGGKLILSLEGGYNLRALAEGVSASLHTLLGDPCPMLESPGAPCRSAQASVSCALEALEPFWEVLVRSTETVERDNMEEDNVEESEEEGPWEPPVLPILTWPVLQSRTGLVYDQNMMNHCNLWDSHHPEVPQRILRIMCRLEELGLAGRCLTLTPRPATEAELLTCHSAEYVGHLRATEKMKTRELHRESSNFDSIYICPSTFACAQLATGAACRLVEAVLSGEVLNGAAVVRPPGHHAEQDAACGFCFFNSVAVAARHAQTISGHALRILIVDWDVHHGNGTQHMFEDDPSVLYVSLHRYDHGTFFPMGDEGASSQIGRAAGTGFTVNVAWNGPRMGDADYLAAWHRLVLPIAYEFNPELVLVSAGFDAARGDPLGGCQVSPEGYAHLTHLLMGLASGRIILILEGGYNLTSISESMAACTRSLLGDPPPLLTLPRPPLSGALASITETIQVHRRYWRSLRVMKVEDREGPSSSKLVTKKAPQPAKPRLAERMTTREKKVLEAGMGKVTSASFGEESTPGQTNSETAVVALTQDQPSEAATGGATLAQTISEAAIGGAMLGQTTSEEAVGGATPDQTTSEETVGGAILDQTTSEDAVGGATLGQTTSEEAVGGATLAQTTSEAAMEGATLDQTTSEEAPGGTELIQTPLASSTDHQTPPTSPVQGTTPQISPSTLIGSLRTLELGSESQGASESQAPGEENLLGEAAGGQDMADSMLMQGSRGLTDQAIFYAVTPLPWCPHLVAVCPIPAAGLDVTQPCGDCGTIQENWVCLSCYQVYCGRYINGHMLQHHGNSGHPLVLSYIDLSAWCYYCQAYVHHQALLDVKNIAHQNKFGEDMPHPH
The assay can be described thus: HDAC6 enzyme activity inhibition assay (in vitro, fluorimetric). It counts as biochemical. As to conditions: for HDAC6 selectivity (fold): HDAC6 selectivity over HDAC1; for IC50: human recombinant HDAC6, fluorimetric kit, same protocol as HDAC1. In short, it runs like this: as §1

One may read the IC50 as the concentration needed to halve the response being measured.

T1 sequence (Q13547 whole entry): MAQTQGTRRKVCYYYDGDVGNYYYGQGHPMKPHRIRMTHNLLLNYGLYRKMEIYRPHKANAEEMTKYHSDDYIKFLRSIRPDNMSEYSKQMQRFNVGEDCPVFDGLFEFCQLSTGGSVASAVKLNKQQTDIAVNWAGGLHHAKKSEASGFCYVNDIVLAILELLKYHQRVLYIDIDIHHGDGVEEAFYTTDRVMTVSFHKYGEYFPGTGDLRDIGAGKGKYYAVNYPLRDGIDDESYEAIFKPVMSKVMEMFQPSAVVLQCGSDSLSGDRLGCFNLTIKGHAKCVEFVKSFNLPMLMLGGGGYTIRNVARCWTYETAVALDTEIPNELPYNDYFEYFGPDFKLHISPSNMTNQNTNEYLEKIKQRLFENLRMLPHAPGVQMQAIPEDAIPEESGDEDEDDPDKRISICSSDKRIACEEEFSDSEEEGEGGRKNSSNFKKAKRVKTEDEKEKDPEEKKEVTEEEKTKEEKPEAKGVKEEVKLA

Regarding `C[C@@H]1CN(Cc2ccc(C(=O)NO)cc2)C[C@H](C)N1C(=O)C1CC1` [Compound 295, 4-(((3R,5S)-4-(cyclopropanecarbonyl)-3,5-dimethylpiperazin-1-yl)methyl)-N-hydroxybenzamide], the concentration for half-maximal inhibition (IC50) on human recombinant HDAC1 worked out at 5700 nM; at human recombinant HDAC6, 79 nM. In addition, on human recombinant HDAC6, the “HDAC6 selectivity (fold)” value came out at 72 fold.

With `C[C@@H]1CN(Cc2ccc(C(=O)NO)cc2)C[C@H](C)N1Cc1cccc(-c2ccoc2)c1` [Compound 343, 4-(((3R,5S)-4-(3-(furan-3-yl)benzyl)-3,5-dimethylpiperazin-1-yl)methyl)-N-hydroxybenzamide], the 50% inhibitory concentration (IC50) on human recombinant HDAC1 is 8800 nM. For the same molecule, on human recombinant HDAC6, the “HDAC6 selectivity (fold)” value is given as 328 fold and the IC50 came out at 27 nM.

As to `CCN(CC)Cc1cccc(CN2C[C@@H](C)N(Cc3ccc(C(=O)NO)cc3)[C@@H](C)C2)c1` [Compound 478, 4-(((2S,6R)-4-(3-((diethylamino)methyl)benzyl)-2,6-dimethylpiperazin-1-yl)methyl)-N-hydroxybenzamide], at human recombinant HDAC1, the IC50 turned out to be 6570 nM. For the same molecule, on human recombinant HDAC6, the “HDAC6 selectivity (fold)” value stood at 10 fold and the IC50 came out at 640 nM.

As for `C[C@@H]1CN(Cc2ccccc2C2=CCOCC2)C[C@H](C)N1Cc1ccc(C(=O)NO)cc1` [Compound 351, 4-(((2S,6R)-4-(2-(3,6-dihydro-2H-pyran-4-yl)benzyl)-2,6-dimethylpiperazin-1-yl)methyl)-N-hydroxybenzamide], the concentration for half-maximal inhibition (IC50) came to 5100 nM on human recombinant HDAC1 and 351 nM on human recombinant HDAC6. Also, the “HDAC6 selectivity (fold)” value at human recombinant HDAC6 came out at 15 fold.

With `C[C@@H]1CN(Cc2ccc(C(=O)NO)cc2)C[C@H](C)N1C(=O)Nc1ccccc1` [Compound 159, (2S,6R)-4-(4-(hydroxycarbamoyl)benzyl)-2,6-dimethyl-N-phenylpiperazine-1-carboxamide], on human recombinant HDAC1, the half-inhibitory concentration (IC50) amounted to 3600 nM. For the same molecule, at human recombinant HDAC6, the “HDAC6 selectivity (fold)” value came out at 109 fold and the IC50 is 33 nM.

For the molecule `C[C@@H]1CN(Cc2ccc(C(=O)NO)cc2)C[C@H](C)N1Cc1cccc(-c2ccco2)c1` [Compound 342, 4-(((3R,5S)-4-(3-(furan-2-yl)benzyl)-3,5-dimethylpiperazin-1-yl)methyl)-N-hydroxybenzamide], the IC50 on human recombinant HDAC1 was 8700 nM. In addition, on human recombinant HDAC6, the “HDAC6 selectivity (fold)” value worked out at 456 fold and the IC50 came to 19 nM.

For `C[C@@H]1CN(Cc2ccc(C(=O)NO)cc2)C[C@H](C)N1Cc1cc(C(F)(F)F)cc(C(F)(F)F)c1` [Compound 214, 4-(((3R,5S)-4-(3,5-bis(trifluoromethyl)benzyl)-3,5-dimethylpiperazin-1-yl)methyl)-N-hydroxybenzamide], on human recombinant HDAC1, the concentration for half-maximal inhibition (IC50) is greater than 10000 nM. For the same molecule, on human recombinant HDAC6, the “HDAC6 selectivity (fold)” value is recorded as greater than 61 fold and the IC50 came to 165 nM.

With `C[C@@H]1CN(Cc2ccc(C(=O)NO)nc2)C[C@H](C)N1Cc1ccccc1` [Compound 812, 5-(((3R,5S)-4-benzyl-3,5-dimethylpiperazin-1-yl)methyl)-N-hydroxypicolinamide], on human recombinant HDAC1, the IC50 was greater than 10000 nM. Besides, at human recombinant HDAC6, the “HDAC6 selectivity (fold)” value is given as greater than 6 fold and the IC50 was found to be 1540 nM.

`C[C@@H]1CN(Cc2ccc3ccccc3c2)C[C@H](C)N1Cc1ccc(C(=O)NO)cc1` [Compound 268, 4-(((2S,6R)-2,6-dimethyl-4-(naphthalen-2-ylmethyl)piperazin-1-yl)methyl)-N-hydroxybenzamide]: the concentration for half-maximal inhibition (IC50) at human recombinant HDAC1 is 2800 nM; on human recombinant HDAC6 it was 1270 nM. Besides, on human recombinant HDAC6, the “HDAC6 selectivity (fold)” value is 2 fold.

For the molecule `CC(C)N1CCN(Cc2cccc(CN3[C@H](C)CN(Cc4ccc(C(=O)NO)cc4)C[C@@H]3C)c2)CC1` [Compound 430, N-hydroxy-4-(((3R,5S)-4-(3-((4-isopropylpiperazin-1-yl)methyl)benzyl)-3,5-dimethylpiperazin-1-yl)methyl)benzamide], the concentration for half-maximal inhibition (IC50) on human recombinant HDAC1 is 4500 nM. Moreover, at human recombinant HDAC6, the “HDAC6 selectivity (fold)” value came out at 55 fold and the half-maximal inhibitory concentration (IC50) was found to be 82 nM.

As to `C[C@@H]1CN(C(=O)c2cccc(-c3ccco3)c2)C[C@H](C)N1Cc1ccc(C(=O)NO)cc1` [Compound 257, 4-(((2S,6R)-4-(3-(furan-2-yl)benzoyl)-2,6-dimethylpiperazin-1-yl)methyl)-N-hydroxybenzamide], the IC50 at human recombinant HDAC1 came out at 1600 nM. In addition, on human recombinant HDAC6, the “HDAC6 selectivity (fold)” value was 6 fold and the half-inhibitory concentration (IC50) turned out to be 255 nM.

As for `C[C@@H]1CN(C(=O)c2ccccc2Cl)C[C@H](C)N1Cc1ccc(C(=O)NO)cc1` [Compound 108, 4-(((2S,6R)-4-(2-chlorobenzoyl)-2,6-dimethylpiperazin-1-yl)methyl)-N-hydroxybenzamide], the concentration for half-maximal inhibition (IC50) on human recombinant HDAC1 is 13100 nM. Moreover, on human recombinant HDAC6, the “HDAC6 selectivity (fold)” value is given as 79 fold and the 50% inhibitory concentration (IC50) stood at 166 nM.

`C[C@@H]1CN(Cc2ccc(C(=O)NO)cc2)C[C@H](C)N1S(=O)(=O)c1ccccc1` [Compound 100, 4-(((3R,5S)-3,5-dimethyl-4-(phenylsulfonyl)piperazin-1-yl)methyl)-N-hydroxybenzamide]: on human recombinant HDAC1, the IC50 is greater than 10000 nM. Moreover, on human recombinant HDAC6, the “HDAC6 selectivity (fold)” value is reported as greater than 105 fold and the IC50 is 95 nM.

Turning to `C[C@@H]1CN(C(=O)Nc2ccc3c(c2)CCO3)C[C@H](C)N1Cc1ccc(C(=O)NO)cc1` [Compound 187, (3R,5S)-N-(2,3-dihydrobenzofuran-5-yl)-4-(4-(hydroxycarbamoyl)benzyl)-3,5-dimethylpiperazine-1-carboxamide], the 50% inhibitory concentration (IC50) at human recombinant HDAC1 stood at 1100 nM. For the same molecule, on human recombinant HDAC6, the “HDAC6 selectivity (fold)” value is listed as 5 fold and the IC50 amounted to 239 nM.

As to `C[C@@H]1CN(Cc2ccc(/C=C/C(=O)NO)cc2)C[C@H](C)N1C(=O)c1ccco1` [Compound 322, (E)-3-(4-(((3R,5S)-4-(furan-2-carbonyl)-3,5-dimethylpiperazin-1-yl)methyl)phenyl)-N-hydroxyacrylamide], the 50% inhibitory concentration (IC50) on human recombinant HDAC1 was 1100 nM; at human recombinant HDAC6, 175 nM. Further, the “HDAC6 selectivity (fold)” value on human recombinant HDAC6 was determined as 6 fold.

Consider `C[C@@H]1CN(Cc2ccc(C(=O)NO)cc2)C[C@H](C)N1C(=O)c1ccc(-c2ccco2)cc1` [Compound 340, 4-(((3R,5S)-4-(4-(furan-2-yl)benzoyl)-3,5-dimethylpiperazin-1-yl)methyl)-N-hydroxybenzamide], for which the IC50 on human recombinant HDAC1 came to 1600 nM; at human recombinant HDAC6, 606 nM. Further, at human recombinant HDAC6, the “HDAC6 selectivity (fold)” value was 3 fold.

In the case of `C[C@@H]1CN(Cc2ccc(C(=O)NO)cc2)C[C@H](C)N1C(=O)c1cccs1` [Compound 126, 4-(((3R,5S)-3,5-dimethyl-4-(thiophene-2-carbonyl)piperazin-1-yl)methyl)-N-hydroxybenzamide], the half-maximal inhibitory concentration (IC50) at human recombinant HDAC1 is 6100 nM. Also, on human recombinant HDAC6, the “HDAC6 selectivity (fold)” value is on record as 1525 fold and the half-inhibitory concentration (IC50) came to 4 nM.

As to `CCN1[C@H](C)CN(Cc2ccc(C(=O)NO)cc2)C[C@@H]1C` [Compound 147, 4-(((3R,5S)-4-ethyl-3,5-dimethylpiperazin-1-yl)methyl)-N-hydroxybenzamide], the IC50 was greater than 10000 nM at human recombinant HDAC1 and 111 nM at human recombinant HDAC6. On human recombinant HDAC6, the “HDAC6 selectivity (fold)” value is listed as greater than 90 fold.
